The target in this assay is BTK wild type (Homo sapiens (Human), UniProt Q06187). Kind of assay: Inhibition assay of BTK kinase activity (HTRF). The class given is biochemical. The protocol: Inhibition Assay of BTK Kinase Activity:
The enzyme reaction mixture of BTK wild type standard HTRF assay contained 1 nM BTK wild type, 1 μM biotin-TK1 peptide, and 30 μM ATP in a buffer. The enzyme reaction were carried out at room temperature for 60 minutes. […] The plates were incubated at room temperature for 60 minutes and then read in the Envision plate reader.
(In general: TR-FRET usually uses a lanthanide donor and a delayed reading to cut background.)

Where [1] appears, read: all compounds with IC50 of less 10 nM, read-out: IC50 (BTK).

SMILES strings stand for the structures. Like-named read-outs stand apart in the source and are kept apart here.

Sequence of BTK wild type (Q06187 whole entry): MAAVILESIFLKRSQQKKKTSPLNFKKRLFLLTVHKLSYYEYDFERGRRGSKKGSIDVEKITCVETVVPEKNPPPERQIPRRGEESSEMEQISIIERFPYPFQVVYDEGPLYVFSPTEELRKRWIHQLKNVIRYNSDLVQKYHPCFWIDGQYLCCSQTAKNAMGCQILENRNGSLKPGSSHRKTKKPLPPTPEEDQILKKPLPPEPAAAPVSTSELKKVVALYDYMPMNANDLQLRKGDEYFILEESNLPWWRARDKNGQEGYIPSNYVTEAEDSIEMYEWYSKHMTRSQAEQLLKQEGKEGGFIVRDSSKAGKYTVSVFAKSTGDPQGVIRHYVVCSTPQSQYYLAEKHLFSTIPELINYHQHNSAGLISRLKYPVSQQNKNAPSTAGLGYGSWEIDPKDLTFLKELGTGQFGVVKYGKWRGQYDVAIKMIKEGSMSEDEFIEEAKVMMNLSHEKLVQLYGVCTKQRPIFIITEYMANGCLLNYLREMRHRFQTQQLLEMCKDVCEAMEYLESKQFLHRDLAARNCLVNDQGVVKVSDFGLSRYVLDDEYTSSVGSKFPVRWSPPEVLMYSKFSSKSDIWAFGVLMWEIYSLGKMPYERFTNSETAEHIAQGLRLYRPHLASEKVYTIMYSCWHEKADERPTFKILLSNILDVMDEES

On to `C=CC(=O)NCC(C)n1nc(-c2ccc(Oc3c(F)c(F)cc(F)c3F)cc2F)c2c(N)ncnc21` (stereo not shown) [Compound 84, N-(2-(4-amino-3-(2-fluoro-4-(2,3,5,6-tetrafluorophenoxy)phenyl)-1H-pyrazolo[3,4-d]pyrimidin-1-yl)propyl)acrylamide], for which the IC50 (read-out: BTK IC50) stood at 16 nM.
Consider `C=CC(=O)N(C)CCn1nc(-c2ccc(Oc3c(F)c(F)cc(F)c3F)cc2F)c2c(N)ncnc21` [Compound 85, N-(2-(4-amino-3-(2-fluoro-4-(2,3,5,6-tetrafluorophenoxy)phenyl)-1H-pyrazolo[3,4-d]pyrimidin-1-yl)ethyl)-N-methylacrylamide], for which, under “read-out: BTK IC50”, the 50% inhibitory concentration (IC50) was 17 nM.
With `C=CC(=O)N(C)CCCn1nc(-c2ccc(Oc3c(F)c(F)cc(F)c3F)cc2F)c2c(N)ncnc21` [Compound 86, N-(3-(4-amino-3-(2-fluoro-4-(2,3,5,6-tetrafluorophenoxy)phenyl)-1H-pyrazolo[3,4-d]pyrimidin-1-yl)propyl)-N-methylacrylamide], the half-maximal inhibitory concentration (IC50) (read-out: BTK IC50) is 8 nM.
`C=CC(=O)NC(C)(C)Cn1nc(-c2ccc(Oc3c(F)c(F)cc(F)c3F)cc2F)c2c(N)ncnc21` [Compound 87, N-(1-(4-amino-3-(2-fluoro-4-(2,3,5,6-tetrafluorophenoxy)phenyl)-1H-pyrazolo[3,4-d]pyrimidin-1-yl)-2-methylpropan-2-yl)acrylamide] yielded a 50% inhibitory concentration (IC50) of under 10 nM. Moreover, the IC50 (read-out: BTK IC50) is 8 nM.
For the molecule `C=CC(=O)N1CC[C@@H](n2nc(-c3ccc(Oc4ccnc(C(=O)NC)c4)cc3F)c3c(N)ncnc32)C1` [Compound 88, 4-(4-(1-((R)-1-acryloylpyrrolidin-3-yl)-4-amino-1H-pyrazolo[3,4-d]pyrimidin-3-yl)-3-fluorophenoxy)-N-methylpicolinamide], the IC50 (read-out: BTK IC50) was found to be 11 nM.
`C=CC(=O)N1CC[C@@H](n2nc(-c3ccc(Oc4ccnc5cc(OC)c(OC)cc45)cc3F)c3c(N)ncnc32)C1` [Compound 89, 1-((R)-3-(4-amino-3-(4-(6,7-dimethoxyquinolin-4-yloxy)-2-fluorophenyl)-1H-pyrazolo[3,4-d]pyrimidin-1-yl)pyrrolidin-1-yl)prop-2-en-1-one]: for the setting “read-out: BTK IC50”, the IC50 was 25 nM.
As for `C=CC(=O)N1CC[C@@H](n2nc(-c3ccc(Oc4ccnc5ccccc45)cc3F)c3c(N)ncnc32)C1` [Compound 90, 1-((R)-3-(4-amino-3-(2-fluoro-4-(quinolin-4-yloxy)phenyl)-1H-pyrazolo[3,4-d]pyrimidin-1-yl)pyrrolidin-1-yl)prop-2-en-1-one], the IC50 (read-out: BTK IC50) worked out at 15 nM.
In the case of `CN(C)C/C=C/C(=O)N1CC[C@@H](n2nc(-c3ccc(Oc4c(F)c(F)cc(F)c4F)cc3F)c3c(N)ncnc32)C1` [Compound 91, (E)-1-((R)-3-(4-amino-3-(2-fluoro-4-(2,3,5,6-tetrafluorophenoxy)phenyl)-1H-pyrazolo[3,4-d]pyrimidin-1-yl)pyrrolidin-1-yl)-4-(dimethylamino)but-2-en-1-one], the IC50 was under 10 nM under setting [1] and 3 nM (read-out: BTK IC50).
`Nc1ncnc2c1c(-c1ccc(Oc3c(F)c(F)cc(F)c3F)cc1F)nn2[C@@H]1CCN(C(=O)/C=C/c2ccccc2)C1` [Compound 92, (E)-1-((R)-3-(4-amino-3-(2-fluoro-4-(2,3,5,6-tetrafluorophenoxy)phenyl)-1H-pyrazolo[3,4-d]pyrimidin-1-yl)pyrrolidin-1-yl)-3-phenylprop-2-en-1-one]: the 50% inhibitory concentration (IC50) (read-out: BTK IC50) is 2400 nM.
On to `Nc1ncnc2c1c(-c1ccc(Oc3c(F)c(F)cc(F)c3F)cc1F)nn2[C@@H]1CCN(C(=O)/C=C/c2ccccc2F)C1` [Compound 93, (E)-1-((R)-3-(4-amino-3-(2-fluoro-4-(2,3,5,6-tetrafluorophenoxy)phenyl)-1H-pyrazolo[3,4-d]pyrimidin-1-yl)pyrrolidin-1-yl)-3-(2-fluorophenyl)prop-2-en-1-one], for which, under “read-out: BTK IC50”, the half-inhibitory concentration (IC50) came out at 2650 nM.
For `C=CC(=O)N1CC[C@@H](n2nc(-c3ccc(Oc4cccc(F)c4)cc3F)c3c(N)ncnc32)C1` [Compound 94, 1-((R)-3-(4-amino-3-(2-fluoro-4-(3-fluorophenoxy)phenyl)-1H-pyrazolo[3,4-d]pyrimidin-1-yl)pyrrolidin-1-yl)prop-2-en-1-one], the IC50 runs as follows: under setting [1], under 10 nM; (read-out: BTK IC50) 1 nM.
As for `C=CC(=O)N1CC[C@@H](n2nc(-c3ccc(Oc4ncccn4)cc3F)c3c(N)ncnc32)C1` [Compound 95, 1-((R)-3-(4-amino-3-(2-fluoro-4-(pyrimidin-2-yloxy)phenyl)-1H-pyrazolo[3,4-d]pyrimidin-1-yl)pyrrolidin-1-yl)prop-2-en-1-one], the concentration for half-maximal inhibition (IC50) under setting [1] was under 10 nM and the IC50 (read-out: BTK IC50) was 5 nM.
Consider `C=CC(=O)N1CC[C@@H](n2nc(-c3ccc(Oc4nccc(Cl)n4)cc3F)c3c(N)ncnc32)C1` [Compound 96, 1-((R)-3-(4-amino-3-(4-(4-chloropyrimidin-2-yloxy)-2-fluorophenyl)-1H-pyrazolo[3,4-d]pyrimidin-1-yl)pyrrolidin-1-yl)prop-2-en-1-one], for which the IC50 (read-out: BTK IC50) was determined as 13 nM.
In the case of `C=CC(=O)N1CC[C@@H](n2nc(-c3ccc(Oc4nccc(C(F)(F)F)n4)cc3F)c3c(N)ncnc32)C1` [Compound 97, 1-((R)-3-(4-amino-3-(2-fluoro-4-(4-(trifluoromethyl)pyrimidin-2-yloxy)phenyl)-1H-pyrazolo[3,4-d]pyrimidin-1-yl)pyrrolidin-1-yl)prop-2-en-1-one], the IC50 (read-out: BTK IC50) worked out at 6 nM.
`N#C/C=C\C(=O)N1CC[C@@H](n2nc(-c3ccc(Oc4c(F)c(F)cc(F)c4F)cc3F)c3c(N)ncnc32)C1` [Compound 98, (Z)-4-((R)-3-(4-amino-3-(2-fluoro-4-(2,3,5,6-tetrafluorophenoxy)phenyl)-1H-pyrazolo[3,4-d]pyrimidin-1-yl)pyrrolidin-1-yl)-4-oxobut-2-enenitrile]: the IC50 is under 10 nM under setting [1] and 2 nM (read-out: BTK IC50).
On to `Nc1ncnc2c1c(-c1ccc(Oc3c(F)c(F)cc(F)c3F)cc1F)nn2[C@@H]1CCCN(C(=O)CCl)C1` [Compound 99, 1-((R)-3-(4-amino-3-(2-fluoro-4-(2,3,5,6-tetrafluorophenoxy)phenyl)-1H-pyrazolo[3,4-d]pyrimidin-1-yl)piperidin-1-yl)-2-chloroethanone], for which the IC50 runs as follows: under setting [1], under 10 nM; (read-out: BTK IC50) 2 nM.
For the molecule `Nc1ncnc2c1c(-c1ccc(Oc3c(F)c(F)cc(F)c3F)cc1F)nn2[C@H]1CCCN(C(=O)CCl)C1` [Compound 100, 1-((S)-3-(4-amino-3-(2-fluoro-4-(2,3,5,6-tetrafluorophenoxy)phenyl)-1H-pyrazolo[3,4-d]pyrimidin-1-yl)piperidin-1-yl)-2-chloroethanone], the half-maximal inhibitory concentration (IC50) under setting [1] was under 10 nM and the half-inhibitory concentration (IC50) (read-out: BTK IC50) came out at 2 nM.
Consider `Nc1ncnc2c1c(-c1ccc(Oc3c(F)c(F)cc(F)c3F)cc1F)nn2[C@@H]1CCCN(C(=O)C(Cl)Cl)C1` [Compound 101, 1-((R)-3-(4-amino-3-(2-fluoro-4-(2,3,5,6-tetrafluorophenoxy)phenyl)-1H-pyrazolo[3,4-d]pyrimidin-1-yl)piperidin-1-yl)-2,2-dichloroethanone], for which the IC50 (read-out: BTK IC50) turned out to be 525 nM.
`Nc1ncnc2c1c(-c1ccc(Oc3c(F)c(F)cc(F)c3F)cc1F)nn2[C@H]1CCCN(C(=O)C(Cl)Cl)C1` [Compound 102, 1-((S)-3-(4-amino-3-(2-fluoro-4-(2,3,5,6-tetrafluorophenoxy)phenyl)-1H-pyrazolo[3,4-d]pyrimidin-1-yl)piperidin-1-yl)-2,2-dichloroethanone]: under “read-out: BTK IC50”, the IC50 was found to be 1600 nM.
Still for that read-out and setting: with `Nc1ncnc2c1c(-c1ccc(Oc3c(F)c(F)cc(F)c3F)cc1F)nn2[C@@H]1CCN(C(=O)C(Cl)Cl)C1` [Compound 103, 1-((R)-3-(4-amino-3-(2-fluoro-4-(2,3,5,6-tetrafluorophenoxy)phenyl)-1H-pyrazolo[3,4-d]pyrimidin-1-yl)pyrrolidin-1-yl)-2,2-dichloroethanone] the figure was 546 nM.
For the molecule `C/C=C/C(=O)N1CC[C@@H](n2nc(-c3ccc(Oc4c(F)c(F)cc(F)c4F)cc3F)c3c(N)ncnc32)C1` [Compound 104, (E)-1-((R)-3-(4-amino-3-(2-fluoro-4-(2,3,5,6-tetrafluorophenoxy)phenyl)-1H-pyrazolo[3,4-d]pyrimidin-1-yl)pyrrolidin-1-yl)but-2-en-1-one], under “read-out: BTK IC50”, the IC50 was 107 nM.
As to `C=C(C)C(=O)N1CC[C@@H](n2nc(-c3ccc(Oc4c(F)c(F)cc(F)c4F)cc3F)c3c(N)ncnc32)C1` [Compound 105, 1-((R)-3-(4-amino-3-(2-fluoro-4-(2,3,5,6-tetrafluorophenoxy)phenyl)-1H-pyrazolo[3,4-d]pyrimidin-1-yl)pyrrolidin-1-yl)-2-methylprop-2-en-1-one], the IC50 (read-out: BTK IC50) amounted to 589 nM.
With `C=C(F)C(=O)N1CC[C@@H](n2nc(-c3ccc(Oc4c(F)c(F)cc(F)c4F)cc3F)c3c(N)ncnc32)C1` [Compound 106, 1-((R)-3-(4-amino-3-(2-fluoro-4-(2,3,5,6-tetrafluorophenoxy)phenyl)-1H-pyrazolo[3,4-d]pyrimidin-1-yl)pyrrolidin-1-yl)-2-fluoroprop-2-en-1-one], the concentration for half-maximal inhibition (IC50) reads like this: under setting [1], under 10 nM; (read-out: BTK IC50) 3 nM.
On to `Nc1ncnc2c1c(-c1ccc(Oc3c(F)c(F)cc(F)c3F)cc1F)nn2[C@@H]1CCCN(C(=O)CF)C1` [Compound 107, 1-((R)-3-(4-amino-3-(2-fluoro-4-(2,3,5,6-tetrafluorophenoxy)phenyl)-1H-pyrazolo[3,4-d]pyrimidin-1-yl)piperidin-1-yl)-2-fluoroethanone], for which the half-maximal inhibitory concentration (IC50) (read-out: BTK IC50) is 101 nM.
Turning to `Nc1ncnc2c1c(-c1ccc(Oc3c(F)c(F)cc(F)c3F)cc1F)nn2[C@H]1CCCN(C(=O)CF)C1` [Compound 108, 1-((S)-3-(4-amino-3-(2-fluoro-4-(2,3,5,6-tetrafluorophenoxy)phenyl)-1H-pyrazolo[3,4-d]pyrimidin-1-yl)piperidin-1-yl)-2-fluoroethanone], where the note is “read-out: BTK IC50”, the IC50 was determined as 436 nM.
Regarding `Nc1ncnc2c1c(-c1ccc(Oc3c(F)c(F)cc(F)c3F)cc1F)nn2[C@@H]1CCN(C(=O)c2ncco2)C1` [Compound 109, ((R)-3-(4-amino-3-(2-fluoro-4-(2,3,5,6-tetrafluorophenoxy)phenyl)-1H-pyrazolo[3,4-d]pyrimidin-1-yl)pyrrolidin-1-yl)(oxazol-2-yl)methanone], the IC50 (read-out: BTK IC50) was 1280 nM.

Usually IC50 stands for the concentration that gives 50% inhibition.
